Where two headings read alike, the source gives them in different places.
Assays:
[1] = biological target: Human MET (residues 956-1390) (Homo sapiens (Human), UniProt P08581); experiment: Human Met kinase assay, HTRF KinEase (Example D-2); format: biochemical; settings: read-out: c-Met IC50
Procedure, shortened: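 IC50 values come from a 4-parameter logistic fit of the […] fluorescence ratio, set between DMSO (100%) and reference compound at 1 μM (0%). Reactions held MET 956-1390 at 0.1 ng/well, ATP at Km, biotinylated peptide, 5 mM MgCl2, 1 mM MnCl2, 1 mM DTT and 3% DMSO, and ran 40 min at room temperature before streptavidin-XL665/Eu-antibody detection.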

[2] = biological target: AXL (phospho-AXL, Gas6-stimulated A-172 glioblastoma cells) (Homo sapiens (Human), UniProt P30530); experiment: AXL autophosphorylation ELISA in A-172 cells (Example E); format: cell-based; settings: cellular activity; AXL autophosphorylation ELISA in A-172 cells; read-out: Axl IC50
Procedure, shortened: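 Phospho-AXL was measured by ELISA in lysates of Gas6-stimulated A-172 cells, starved 24 h in serum-free medium and exposed 1 h to an 8-point compound dilution at 0.3% DMSO.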

[3] = biological target: Met (phospho-Met, HGF-stimulated PC-3 prostate cancer cells) (Homo sapiens (Human), UniProt P08581); experiment: Met autophosphorylation ELISA in PC-3 cells (Example F); format: cell-based; settings: cellular activity; Met autophosphorylation ELISA in PC-3 cells; read-out: c-Met IC50
Procedure, shortened: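 IC50 values derive from a 4-parameter logistic fit of phospho-Met (panTyr) sandwich ELISA signals in PC-3 lysates, scaled between DMSO and reference-inhibitor wells. Cells, starved 3 h in serum-free medium, had 1 h compound exposure (8 doses, 0.3% DMSO) before 10 min stimulation with 100 ng/mL HGF.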

[4] = biological target: KDR (phospho-KDR, VEGF165-stimulated HUVEC cells) (Homo sapiens (Human), UniProt P35968); experiment: KDR autophosphorylation ELISA in HUVEC cells (Example G); format: cell-based; settings: cellular activity; KDR autophosphorylation ELISA in HUVEC cells
Procedure, shortened: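 Read-out is phospho-KDR measured by ELISA in lysates of VEGF165-stimulated (100 ng/mL, 5 min) HUVEC that were serum-starved 24 h and then pre-exposed 1 h to compound across 8 doses in 0.3% DMSO. Unstimulated lysates defined 0% and stimulated vehicle lysates 100% activity; IC50 values come from 4-parameter logistic regression.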

[5] = biological target: Mer (phospho-Mer, MERTK-transfected 293A cells) (Homo sapiens (Human), UniProt Q12866); experiment: Mer autophosphorylation ELISA in transient transfected 293A cells (Example H); format: cell-based; settings: cellular activity; Mer autophosphorylation ELISA in transient transfected 293A cells
Procedure, shortened: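 IC50 from 4-parameter logistic fit of phospho-Mer levels, quantified by ELISA against a phospho-Mer standard in lysates of MERTK-transfected 293A cells. Cells exposed 1 h to 8-point serial dilutions, serum-free, 0.3% DMSO; controls: DMSO (100%) and reference inhibitor (0%).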

Mer (phospho-Mer, MERTK-transfected 293A cells), sequence (Q12866 21-999): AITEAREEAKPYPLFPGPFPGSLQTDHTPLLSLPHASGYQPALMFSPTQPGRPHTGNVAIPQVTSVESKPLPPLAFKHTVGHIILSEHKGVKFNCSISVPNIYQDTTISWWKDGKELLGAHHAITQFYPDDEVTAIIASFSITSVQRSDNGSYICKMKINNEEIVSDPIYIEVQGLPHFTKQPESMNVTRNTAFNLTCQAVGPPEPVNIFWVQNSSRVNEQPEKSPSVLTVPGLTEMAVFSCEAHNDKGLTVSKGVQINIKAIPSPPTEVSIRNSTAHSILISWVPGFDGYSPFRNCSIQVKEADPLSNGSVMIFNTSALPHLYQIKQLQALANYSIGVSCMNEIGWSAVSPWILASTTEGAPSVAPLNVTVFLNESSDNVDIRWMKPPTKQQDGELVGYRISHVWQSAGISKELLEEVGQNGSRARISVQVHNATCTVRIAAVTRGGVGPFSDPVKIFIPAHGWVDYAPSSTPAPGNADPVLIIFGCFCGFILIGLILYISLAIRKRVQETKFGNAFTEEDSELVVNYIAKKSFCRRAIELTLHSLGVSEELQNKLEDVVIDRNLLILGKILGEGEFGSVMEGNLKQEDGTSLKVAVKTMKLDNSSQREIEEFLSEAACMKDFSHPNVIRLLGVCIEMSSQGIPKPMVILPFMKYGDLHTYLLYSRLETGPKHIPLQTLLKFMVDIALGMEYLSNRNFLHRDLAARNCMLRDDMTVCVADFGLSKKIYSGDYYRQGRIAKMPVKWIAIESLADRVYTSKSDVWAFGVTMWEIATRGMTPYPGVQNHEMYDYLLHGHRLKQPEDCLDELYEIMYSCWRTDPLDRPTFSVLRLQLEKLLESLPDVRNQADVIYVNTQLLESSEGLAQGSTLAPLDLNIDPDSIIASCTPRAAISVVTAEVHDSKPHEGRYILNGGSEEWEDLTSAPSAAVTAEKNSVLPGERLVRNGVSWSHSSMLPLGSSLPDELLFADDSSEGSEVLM
Human MET (residues 956-1390), sequence (P08581 956-1390): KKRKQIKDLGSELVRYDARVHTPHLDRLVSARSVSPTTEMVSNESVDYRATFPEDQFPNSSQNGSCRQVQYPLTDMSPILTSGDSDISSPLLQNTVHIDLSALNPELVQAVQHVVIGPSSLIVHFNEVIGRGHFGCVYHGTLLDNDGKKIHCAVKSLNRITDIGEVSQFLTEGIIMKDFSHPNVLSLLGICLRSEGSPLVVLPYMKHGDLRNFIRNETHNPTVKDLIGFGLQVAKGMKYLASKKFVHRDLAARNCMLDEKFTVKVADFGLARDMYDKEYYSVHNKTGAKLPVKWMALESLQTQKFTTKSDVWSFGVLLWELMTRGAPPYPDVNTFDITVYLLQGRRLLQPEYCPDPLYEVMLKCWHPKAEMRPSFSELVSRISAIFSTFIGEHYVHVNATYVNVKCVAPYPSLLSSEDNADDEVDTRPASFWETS
AXL (phospho-AXL, Gas6-stimulated A-172 glioblastoma cells), sequence (P30530 26-894): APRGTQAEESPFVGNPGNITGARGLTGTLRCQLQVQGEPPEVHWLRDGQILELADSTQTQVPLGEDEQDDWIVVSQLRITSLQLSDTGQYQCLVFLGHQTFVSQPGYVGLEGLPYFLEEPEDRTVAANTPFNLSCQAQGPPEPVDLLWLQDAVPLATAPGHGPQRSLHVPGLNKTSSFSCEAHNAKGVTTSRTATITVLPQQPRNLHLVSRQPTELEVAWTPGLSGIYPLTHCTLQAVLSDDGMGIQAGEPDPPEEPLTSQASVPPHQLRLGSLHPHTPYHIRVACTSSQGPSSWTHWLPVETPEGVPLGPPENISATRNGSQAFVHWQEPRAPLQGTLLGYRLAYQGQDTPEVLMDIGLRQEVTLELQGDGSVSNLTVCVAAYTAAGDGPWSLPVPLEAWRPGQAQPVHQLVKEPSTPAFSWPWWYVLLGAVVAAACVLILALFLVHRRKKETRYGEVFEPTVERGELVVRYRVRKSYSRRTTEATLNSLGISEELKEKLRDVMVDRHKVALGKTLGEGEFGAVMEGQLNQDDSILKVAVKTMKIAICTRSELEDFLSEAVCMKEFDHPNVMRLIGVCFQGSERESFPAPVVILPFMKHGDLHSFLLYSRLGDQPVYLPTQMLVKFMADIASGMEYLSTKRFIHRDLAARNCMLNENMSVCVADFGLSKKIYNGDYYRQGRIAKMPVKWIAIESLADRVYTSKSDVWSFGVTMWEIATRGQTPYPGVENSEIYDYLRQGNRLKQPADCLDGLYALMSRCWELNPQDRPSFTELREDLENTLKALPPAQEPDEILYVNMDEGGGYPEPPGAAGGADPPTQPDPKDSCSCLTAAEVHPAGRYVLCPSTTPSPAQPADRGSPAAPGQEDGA
Met (phospho-Met, HGF-stimulated PC-3 prostate cancer cells), sequence (P08581 25-1390): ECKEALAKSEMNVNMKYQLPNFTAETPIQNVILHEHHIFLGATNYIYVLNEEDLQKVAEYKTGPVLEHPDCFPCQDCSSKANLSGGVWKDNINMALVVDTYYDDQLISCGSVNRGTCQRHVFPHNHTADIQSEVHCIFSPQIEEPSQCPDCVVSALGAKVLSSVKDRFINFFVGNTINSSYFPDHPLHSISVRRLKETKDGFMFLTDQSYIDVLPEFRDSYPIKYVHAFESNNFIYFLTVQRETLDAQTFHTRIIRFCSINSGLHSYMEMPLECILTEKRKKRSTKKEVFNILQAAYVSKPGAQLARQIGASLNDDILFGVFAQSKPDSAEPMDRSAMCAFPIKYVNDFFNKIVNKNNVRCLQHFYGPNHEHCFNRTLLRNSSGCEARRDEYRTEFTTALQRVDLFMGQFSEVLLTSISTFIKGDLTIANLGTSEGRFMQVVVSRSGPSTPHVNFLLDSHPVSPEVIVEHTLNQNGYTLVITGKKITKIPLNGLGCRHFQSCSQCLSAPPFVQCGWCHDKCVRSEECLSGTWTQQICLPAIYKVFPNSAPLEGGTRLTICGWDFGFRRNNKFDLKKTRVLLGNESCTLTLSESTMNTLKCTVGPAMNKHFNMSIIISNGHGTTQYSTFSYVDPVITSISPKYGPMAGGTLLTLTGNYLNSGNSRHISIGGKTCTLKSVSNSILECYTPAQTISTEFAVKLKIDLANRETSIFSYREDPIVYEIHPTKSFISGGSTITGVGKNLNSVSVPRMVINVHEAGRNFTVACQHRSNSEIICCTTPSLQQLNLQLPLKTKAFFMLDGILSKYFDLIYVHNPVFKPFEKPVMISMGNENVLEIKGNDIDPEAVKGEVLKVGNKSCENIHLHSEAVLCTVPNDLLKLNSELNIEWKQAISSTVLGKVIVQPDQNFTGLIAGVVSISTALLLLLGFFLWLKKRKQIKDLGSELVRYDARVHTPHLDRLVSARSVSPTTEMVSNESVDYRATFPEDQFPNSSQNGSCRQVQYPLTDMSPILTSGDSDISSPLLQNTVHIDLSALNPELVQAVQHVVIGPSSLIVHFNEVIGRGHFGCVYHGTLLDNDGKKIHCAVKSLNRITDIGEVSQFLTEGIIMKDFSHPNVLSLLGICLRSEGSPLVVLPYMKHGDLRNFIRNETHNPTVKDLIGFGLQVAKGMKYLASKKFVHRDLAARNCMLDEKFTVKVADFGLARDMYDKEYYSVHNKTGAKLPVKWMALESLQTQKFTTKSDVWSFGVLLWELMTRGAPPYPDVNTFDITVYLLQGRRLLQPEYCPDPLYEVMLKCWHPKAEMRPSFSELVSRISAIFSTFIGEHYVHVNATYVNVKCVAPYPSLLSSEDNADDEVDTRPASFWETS
KDR (phospho-KDR, VEGF165-stimulated HUVEC cells), sequence (P35968 20-1356): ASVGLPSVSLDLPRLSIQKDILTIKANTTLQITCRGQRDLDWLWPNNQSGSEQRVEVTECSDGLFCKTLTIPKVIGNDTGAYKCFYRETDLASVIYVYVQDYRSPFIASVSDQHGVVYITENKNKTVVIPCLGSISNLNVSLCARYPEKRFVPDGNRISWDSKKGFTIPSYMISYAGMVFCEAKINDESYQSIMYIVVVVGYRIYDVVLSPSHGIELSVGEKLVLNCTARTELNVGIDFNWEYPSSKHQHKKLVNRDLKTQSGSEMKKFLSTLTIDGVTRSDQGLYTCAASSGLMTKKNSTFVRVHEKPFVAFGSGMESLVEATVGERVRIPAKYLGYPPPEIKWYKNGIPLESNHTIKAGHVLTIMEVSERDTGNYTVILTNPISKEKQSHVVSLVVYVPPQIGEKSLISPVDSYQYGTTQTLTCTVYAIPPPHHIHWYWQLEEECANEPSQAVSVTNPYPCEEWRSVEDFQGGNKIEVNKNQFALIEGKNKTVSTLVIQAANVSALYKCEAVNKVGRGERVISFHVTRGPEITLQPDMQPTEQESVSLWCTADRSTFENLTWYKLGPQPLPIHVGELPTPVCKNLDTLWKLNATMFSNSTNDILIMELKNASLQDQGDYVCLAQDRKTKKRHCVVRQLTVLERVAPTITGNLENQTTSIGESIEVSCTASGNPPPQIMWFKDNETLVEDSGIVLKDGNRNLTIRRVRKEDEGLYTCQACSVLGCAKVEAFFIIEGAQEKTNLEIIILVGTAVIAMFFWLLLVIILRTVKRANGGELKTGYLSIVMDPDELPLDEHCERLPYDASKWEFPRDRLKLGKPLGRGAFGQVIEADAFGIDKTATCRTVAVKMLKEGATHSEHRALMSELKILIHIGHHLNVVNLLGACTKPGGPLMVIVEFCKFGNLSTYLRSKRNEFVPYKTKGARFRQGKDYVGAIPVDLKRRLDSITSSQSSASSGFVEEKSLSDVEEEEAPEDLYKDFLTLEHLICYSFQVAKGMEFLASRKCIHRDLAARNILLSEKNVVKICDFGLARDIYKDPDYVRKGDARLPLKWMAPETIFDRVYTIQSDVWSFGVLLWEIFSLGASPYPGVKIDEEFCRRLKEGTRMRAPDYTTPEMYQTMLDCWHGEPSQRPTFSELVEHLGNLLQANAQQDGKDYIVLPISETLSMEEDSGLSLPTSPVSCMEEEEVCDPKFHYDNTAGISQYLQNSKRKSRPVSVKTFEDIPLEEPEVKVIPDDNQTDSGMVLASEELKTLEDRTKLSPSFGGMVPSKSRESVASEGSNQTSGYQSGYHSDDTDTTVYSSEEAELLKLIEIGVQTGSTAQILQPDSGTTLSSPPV

SMILES	IC50 ([1]; protocol of Example D-2 (other compounds))	IC50 [2]	IC50 [3]	IC50 [4]	IC50 [5]	IC50 ([1]; protocol of Example D-2)
COc1cc2nccc(Oc3ccc(NC(=O)c4cn(C5CN(C)C5)cc(-c5ccc(F)cc5)c4=O)cc3F)c2nc1OC [Compound 52, N-[4-[(6,7-Dmethoxy-1,5-naphthyridin-4-yl)oxy]-3-fluorophenyl]-5-(4-fluorophenyl)-1-(1-methylazetidin-3-yl)-4-oxopyridine-3-carboxamide]	< 100 nM	< 100 nM	< 100 nM	> 300 nM	< 100 nM	–
COc1cc2nccc(Oc3ccc(NC(=O)c4cn(C5CNC5)cc(-c5ccc(F)cc5)c4=O)cc3F)c2nc1OC [Compound 576, 1-(Azetidin-3-yl)-N-[4-[(6,7-dimethoxy-1,5-naphthyridin-4-yl)oxy]-3-fluorophenyl]-5-(4-fluorophenyl)-4-oxopyridine-3-carboxamide]	–	< 100 nM	< 100 nM	> 300 nM	< 100 nM	< 100 nM

Reference: patent US12371428B2 (Exelixis, Inc., priority 2019, dated 2025)
